Experimental data: article PMC7249060, “The Antiproliferative Effects of Flavonoid MAO Inhibitors on Prostate Cancer Cells” (Molecules, 2020)

Assays:
hMAO-A = biological target: T1, hMAO-A (Homo sapiens, UniProt P21397); assay: MAO-Glow inhibitory potency (IC50) and relative selectivity; type: biochemical; conditions: for hMAO-A relative selectivity (RSA): RSA = hMAO-B IC50/hMAO-A IC50; for MAO isozyme selectivity: comparison of hMAO-A and hMAO-B IC50s; for IC50: mean ± SEM, at least two experiments, LDS 40 μM
T1 construct: purchased Sigma-Aldrich Co. (St. Louis, MO, USA)
T1 sequence (P21397 1-527): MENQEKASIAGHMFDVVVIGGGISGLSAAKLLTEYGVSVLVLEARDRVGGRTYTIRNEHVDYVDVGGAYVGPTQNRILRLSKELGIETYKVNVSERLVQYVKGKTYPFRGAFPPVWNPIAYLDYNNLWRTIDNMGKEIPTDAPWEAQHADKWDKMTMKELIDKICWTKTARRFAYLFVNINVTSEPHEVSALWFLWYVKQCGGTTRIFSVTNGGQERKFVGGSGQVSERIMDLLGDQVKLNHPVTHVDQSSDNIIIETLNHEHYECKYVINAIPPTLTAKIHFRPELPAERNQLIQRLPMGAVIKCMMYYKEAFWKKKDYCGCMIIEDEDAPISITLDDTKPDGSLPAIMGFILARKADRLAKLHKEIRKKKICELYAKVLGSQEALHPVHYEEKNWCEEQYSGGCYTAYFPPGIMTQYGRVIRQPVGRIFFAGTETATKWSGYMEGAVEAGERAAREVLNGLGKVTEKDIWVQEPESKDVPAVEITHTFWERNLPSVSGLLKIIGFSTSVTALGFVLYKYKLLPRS
Experimental: The inhibitory effects of the synthesized KKRs of hMAO-A and B were tested by measuring the decrease in arbitrary light units (ALU) signal produced by the optimized isozymes using the MAO-Glow™ Assay at 37 °C. In this assay, DMSO stock for each KKR compound was diluted with a reaction buffer of pH 7.4 to make a 4X working solution for a maximum final concentration of 100 μM and ≤1% DMSO. The experiments were run in the absence and presence of 4X the miscellaneous standards of MAO-BIs (DEP, PARG, and SAF) and MAO-AIs (PIRL and CLORG), with similar concentrations. In white opaque 96-well microplates, 12.5 μL of each compound was plated at RT and was followed by 25 μL of 2X cold hMAO-A or hMAO-B, for a final concentration of 0.44 U/mL. A related buffer substituted each isozyme to make the blank wells and substituted each compound to make the negative control wells. Following this, we added 12.5 μL of 4X LDS to make a final substrate concentration of 40- and 4-μM for hMAO-A and hMAO-B, respectively. All screen plates were incubated at 37 °C for 60 min. The plates of 50 μL/well were then taken out from the incubator, and their reactions were stopped by an equal volume of 50 μL of reporter luciferin detection reagent (RLDR). After 30 min, the luminescence signals for all plates were read on a Synergy HTX Multi-reader from Bio-Tek (Winooski, VT, USA).
The experiments were performed in the presence and absence of the standard PILR. In white opaque 96-well plates, each KKR compound was serially diluted with a reaction buffer of pH 7.4 at the highest possible maximum final concentration, and the least used DMSO (<2%). In blank wells, the related reaction buffer substituted the isozyme. In negative control wells, the reaction buffer substituted each compound concentration. Then, the procedure was carried out as mentioned above (Section 4.2.2), and the reaction was detected on the Bio-Tek Synergy HTX Multi-Reader. The IC50 of each KKR on both isozymes was determined and subsequently the RSA and RSB was calculated.
Statistical analyses were performed using the GraphPad Prism program (version 6.07 for Windows) from the GraphPad Prism Software Incorporated (San Diego, CA, USA). All data points and parameters were expressed as the mean ± SEM. All parameters were calculated from non-linear and linear regressions with the best R^2 values, no less than 93%. The inhibitory concentration of 50% of isozyme (IC50) of each compound was obtained by the interpolation of a normalized variable slope logarithmic curve. The RSA values of the selected compounds were calculated from their IC50 average means following the equation RSA = hMAO − B IC50/Hmao − A IC50(1)

LNCaP cells = assay: Antiproliferation screen assay, resazurin, 72 h; type: cell-based, human; conditions: 50 μM
Experimental: (§1) In this screen, we examined the growth inhibitory effects of all synthesized KKRs on the three human PCa cell lines LNCaP, DU145, and PC3. The antiproliferative clinical drug TAX of 0.25 μM was used as a positive control. Additionally, different standards of MAO-Is and FLUT were tested for their effect on the LNCaP cells. Briefly, the procedures and materials used were the same as for the viability assay except for the following—cultured cells were seeded at 10,000 cells/175-µL/well related experimental media, and the resazurin solution was added after 72 h of incubation with the compounds of 50 μM each.

DU145 cells [1] = assay: Antiproliferation screen assay, resazurin, 72 h; type: cell-based, human; conditions: 50 μM
Experimental: as §1

DU145 cells [2] = assay: Scratch migration assay; type: cell-based, human; conditions: preliminary data
Experimental: For in-vitro migration experiments, the PCa metastatic DU145 cell line was used. Cell proliferation and cytotoxicity were monitored for assay validation. The cells (passage # ≤ 10) were grown in fresh media of EMEM 10% FBS, 1% P/S. The cells were seeded in flat-bottom transparent 96-well microplates (100,000 cells/100 μL/well) in EMEM 5% FBS, 1% P/S experimental media. The next day, the confluent cells monolayer was artificially injured by scratching a line across each well, using a 200 μL tip. Immediately, the old media with the detached cells were replaced with 175 μL fresh warm experimental media. Intact cells were then treated with 25 μL of HBSS buffer 7.4 containing tested KKR. In addition to the negative control, KKR11 was tested at gradual concentrations to make finals of 40, 30, 23, 17, and 13 μM. The cells were then incubated for an additional 72 h for gap closure of the control wells.
At the gap closure time point, all cells were subjected to the crystal violet assay that only stains viable cells. Briefly, all media were carefully aspired from cells that were then washed with Ca- and Mg-free PBS. The cells were then fixed with 100 μL 0.25% v/v glutaraldehyde, at 37 °C for 20–30 min incubation time, and dried overnight. The next day, all viable attached cells were stained with a 100 μL crystal violet solution (0.1% in DI-water) for up to 30 min. The solution was then discarded, and the stained cells were kept dry for imaging. Images of the scratched areas were photographed using 10X phase contrast objective lenses of Motic-MXH-100-AE31E-Elite Inverted Microscope.

Row | SMILES | hMAO-A relative selectivity (RSA) (hMAO-A) | MAO isozyme selectivity (hMAO-A) | IC50 (hMAO-A) | antiproliferative effect in screen (LNCaP cells) | antiproliferative effect in screen (DU145 cells [1]) | effect on cell migration (DU145 cells [2])
1 | O=c1cc(-c2ccccc2)oc2cc(Cl)c(Cl)cc12 [KKR21, 6,7-dichloro-2-phenyl-4H-chromen-4-one] | > 42105 folds | highly selective MAO-AIs | 19 nM | no effects on any of the screened PCa cell models | no effects on any of the screened PCa cell models | –
2 | O=c1c(O)c(-c2ccccc2)oc2c(Cl)cc(Cl)cc12 [KKR7, 6,8-dichloro-3-hydroxy-2-phenyl-4H-chromen-4-one] | > 42105 folds | highly selective MAO-AIs | 16000 ± 530 nM | – | top effective | no significant effects against cell migration
3 | COc1cc(O)c(C(=O)/C=C/c2ccc(Cl)c(Cl)c2)c(OC)c1 [KKR11, (E)-3-(3,4-dichlorophenyl)-1-(2-hydroxy-4,6-dimethoxyphenyl)prop-2-en-1-one] | – | non-selective MAO-I | 310 ± 30 nM | top five KKRs that kept standing out with antiproliferative effects | top effective | delayed cell migration
4 | O=C(/C=C/c1ccccc1)c1cc(Cl)cc(Cl)c1O [KKR20, (E)-1-(3,5-dichloro-2-hydroxyphenyl)-3-phenylprop-2-en-1-one] | – | in favor to inhibit MAO-B | 2940 ± 390 nM | top five KKRs that kept standing out with antiproliferative effects | – | no significant effects against cell migration
5 | COc1cc(OC)c2c(=O)c(O)c(/C=C/c3cc(OC)c(OC)c(OC)c3)oc2c1 [KKR2A, (E)-3-hydroxy-5,7-dimethoxy-2-(3,4,5-trimethoxystyryl)-4H-chromen-4-one] | – | non-selective MAO inhibitory activity | 1030 ± 40 nM | no effects on any of the screened PCa cell models | no effects on any of the screened PCa cell models | –
